Measured values reported in patent publication USRE40707E1, “Use of carbazole compounds for the treatment of congestive heart failure” (SB Pharmco Puerto Rico Inc., priority 1995, dated 2009).
Like-named read-outs stand apart in the source and are kept apart here.

What was measured:
patients with CHF [1] = settings: treatment of CHF; cited from earlier work
[2] = test system: acute myocardial infarction; settings: canine model of acute myocardial infarction; cited from earlier work
patients with CHF [3] = test: U.S. Carvedilol Heart Failure Trials: mortality studies in CHF patients; format: in vivo, human; settings: for Risk reduction of mortality / Risk reduction, All Cause Mortality: vs placebo; for All Cause Mortality (%) / Risk reduction, All Cause Mortality: all patients; for All Cause Mortality (%): class II-IV CHF, intention-to-treat, placebo 8.2%; for Risk reduction, All Cause Mortality: 95% CI 42-81
Source text: To determine if β-adrenergic blockade might inhibit the deleterious effects of the sympathetic nervous system on survival in heart failure (CHF), 1052 patients with CHF were prospectively enrolled into a multicenter trial program, in which the patients were randomly assigned (double-blind) to 6-12 months' treatment with placebo (PBO) or carvedilol (CRV). After a common screening period, patients with class II-IV CHF (see next paragraph for the definitions of the classification of CI) and an ejection fraction <0.35 were assigned to one of four protocols based on performance on a 6-minute walk test. PBO or CRV was added to existing therapy with digoxin, diuretics and an ACE inhibitor. All-cause mortality was monitored by a prospectively constituted Data and Safety Monitoring Board (DSMB). After 25 months of enrollment, the DSMB recommended termination of the program because of a favorable effect of CRV on survival. By […], mortality was 8.2% in the PBO group but only 2.9% in the CRV group (P=0.0001. Cochran-Mantel-Haensel analysis). This represented a reduction in risk of death by CRV of 67% (95% CI: 42% to 81%). The treatment effect was similar in patients with class II and class III-IV symptoms. Mortality was reduced in class II patients from 5.9% to 1.9%, a 68% reduction (95% CI: 20% to 97%) [P=0.015,), and in class III-IV patients from 11.0% to 4.2%. a 67% reduction (95% CI 30% to 84%), [P=0.004, a log-rank]. Importantly, the effect of CRV was similar in ischematic heart disease (risk reduced by 67%. P=0.003) and in nonischemic dilated cardiomyopathy (risk reduced by 67%. P=0.014). […] The treatment effect is seen across a broad range of severity and etiology of disease.
Patients on background therapy with diuretics. ACE inhibitors and/or digoxin were stratified on the basis of baseline […] exercise performance, into one of four trials: • study 220, a dose response study in moderate (NYHA II-IV) CHF with exercise testing as a primary endpoint • study 221, a dose titration study in moderate (NYHA II-IV) CI with exercise testing as a primary endpoint • study 239, a dose titration study in severe (NYHA III-IV) CHF with quality of life as a primary endpoint • study 240, a dose titration study in mild (NYHA II—III) CHF with progression of CHF as a primary endpoint
Sixty-four centers in the US participated in the trial program. All sites conducted protocols 239 and 240, while 33 performed protocol 220 and 31 performed protocol 221.
Although each trial had its own individual objectives, the overall program objective defined prospectively was evaluation of all-cause mortality. Based upon a projected enrollment of 1100 patients, the program had 90% power to detect a 50% reduction in mortality (two-sided) between carvedilol and placebo, assuming a mortality rate in the placebo group of 12% over the duration of the trials (α=0.05).
Randomization was preceded by a screening and challenge period common to the four protocols. The purpose of the screening period was to quality patients for study entry obtain reproducible baseline measurements, and stratify patients into the appropriate trial based on submaximal exercise testing. During the challenge period, patients received low-dose open-label carvedilol (6.25 mg b.i.d.) for two weeks. […] Patients tolerating low-dose carvedilol were then randomized to blinded medication (carvedilol or placebo) with the dose titrated over several weeks in the range of 6.25 to 50 mg b.i.d. (or equivalent level of placebo). The maintenance phase of each study ranged from six to 12 months, after which patients had the option of receiving open-label carvedilol in an extension study.
The analysis presented below corresponds to the data set on which the DSMB made the recommendation to terminate the trials. Included in this […] analysis are all patients enrolled in the US trials as of Jan. 20, […]; 624 receiving carvedilol and 356 placebo. […]

[4] = test system: acute myocardial infarction; settings: rat model of acute myocardial infarction; cited from earlier work
[5] = test system: acute myocardial infarction; settings: porcine model of acute myocardial infarction; cited from earlier work

SMILES: COCCc1ccc(OCC(O)CNC(C)C)cc1 (centres unmarked) [metoprolol]
- mortality, drug-treated vs placebo-treated patients (patients with CHF [1]): no difference in mortality

SMILES: COc1ccccc1OCCNCC(O)COc1cccc2[nH]c3ccccc3c12 (centres unmarked) [Carvedilol]
- infarct size [2]: markedly reduces infarct size
- Risk reduction of mortality (patients with CHF [3]; Class II CHF, 95% CI 20-97): 68%
- Risk reduction of mortality (patients with CHF [3]; Class II CHF, 95% CI 20-97, listed as CRV): 68%
- Mortality (%) (patients with CHF [3]; Class II CHF, placebo 5.9%): (1.9%)
- Mortality (%) (patients with CHF [3]; Class II CHF, placebo 5.9%, listed as CRV): 1.9%
- Risk reduction of mortality (patients with CHF [3]; Class III-IV CHF, 95% CI 30-84): 66%
- Risk reduction of mortality (patients with CHF [3]; Class III-IV CHF, 95% CI 30-84, listed as CRV): 67%
- Mortality (%) (patients with CHF [3]; Class III-IV CHF, placebo 11.0%): (4.2%)
- Mortality (%) (patients with CHF [3]; Class III-IV CHF, placebo 11.0%, listed as CRV): 4.2%
- Risk reduction of mortality (patients with CHF [3]; Ischemic Etiology, 95% CI 32-85): 67%
- Risk reduction of mortality (patients with CHF [3]; Ischemic Etiology, 95% CI 32-85, listed as CRV): 67%
- Mortality (%) (patients with CHF [3]; Ischemic Etiology, placebo 8.9%): (3.2%)
- Risk reduction of mortality (patients with CHF [3]; Non-Ischemic Etiology, 95% CI 20-86): 67%
- Risk reduction of mortality (patients with CHF [3]; Non-Ischemic Etiology, 95% CI 20-86, listed as CRV): 67%
- Mortality (%) (patients with CHF [3]; Non-Ischemic Etiology, placebo 7.3%): (2.5%)
- All Cause Mortality (%) (patients with CHF [3]): (2.9%)
- All Cause Mortality (%) (patients with CHF [3]; listed as CRV): 2.9%
- Risk reduction, All Cause Mortality (patients with CHF [3]): 67%
- Risk reduction, All Cause Mortality (patients with CHF [3]; listed as CRV): 67%
- infarct size [4]: markedly reduces infarct size
- infarct size [5]: markedly reduces infarct size

SMILES: CC(C)NCC(O)COc1ccc(COCCOC(C)C)cc1 (centres unmarked) [bisoprolol]
- mortality, drug-treated vs placebo-treated patients (patients with CHF [1]): no difference in mortality
